As a reminder, the IC50 is the concentration that gives 50% inhibition.

Where a name gives a salt, the structure may show the parent alone.

Sequence of histidine-tagged recombinant human TrkA, cytoplasmic domain (P04629 440-796): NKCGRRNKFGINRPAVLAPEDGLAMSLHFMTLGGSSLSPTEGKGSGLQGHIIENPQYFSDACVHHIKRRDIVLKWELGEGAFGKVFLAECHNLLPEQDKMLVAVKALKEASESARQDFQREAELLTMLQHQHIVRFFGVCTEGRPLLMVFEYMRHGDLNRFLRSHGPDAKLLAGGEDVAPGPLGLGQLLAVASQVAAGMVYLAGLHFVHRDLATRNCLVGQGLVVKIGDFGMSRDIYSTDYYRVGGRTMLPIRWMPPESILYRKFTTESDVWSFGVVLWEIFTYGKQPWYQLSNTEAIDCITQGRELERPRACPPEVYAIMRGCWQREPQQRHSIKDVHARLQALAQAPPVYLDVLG

The assay addresses histidine-tagged recombinant human TrkA, cytoplasmic domain (Homo sapiens (Human), UniProt P04629). The assay is described as follows: TrkA ELISA Assay. The format is biochemical. The conditions noted are these: 2.5 nM TrkA, 500 μM ATP, 25 minutes; read-out: TrkA Elisa Enzyme IC50. On the procedure:
An enzyme-linked immunosorbant assay (ELISA) was used to assess TrkA kinase activity in the presence of inhibitors. Immulon 4HBX 384-well microtiter plates (Thermo part #8755) were coated with a 0.025 mg/mL solution of poly (Glu, Ala, Tyr; 6:3:1; Sigma P3899). Various concentrations of test compound, 2.5 nM TrkA (Invitrogen Corp., histidine-tagged recombinant human TrkA, cytoplasmic domain), and 500 μM ATP were incubated for 25 minutes at ambient temperature in the coated plates while shaking. The assay buffer consisted of 25 mM MOPS pH 7.5, 0.005% (v/v) Triton X-100 and 5 mM MgCl2. The reaction mixture was removed from the plate by washing with PBS containing 0.1% (v/v) Tween 20. The phosphorylated reaction product was detected using 0.2 μg/mL of a phosphotyrosine specific monoclonal antibody (clone PY20) conjugated to horseradish peroxidase in conjunction with the TMB Peroxidase Substrate System (KPL). After the addition of 1M phosphoric acid, the chromogenic substrate color intensity was quantitated via absorbance at 450 nm. IC50 values were calculated using either a 4 or 5-parameter logistic curve fit.
In general terms: An ELISA detects its analyte on a solid surface through an enzyme-linked reagent.
As to `O=C(O)C1(C(=O)Nc2cnn3ccc(N4CCC[C@@H]4c4cc(F)ccc4F)nc23)CC1` [Example 34, (R)-1-(5-(2-(2,5-difluorophenyl)pyrrolidin-1-yl)pyrazolo[1,5-a]pyrimidin-3-ylcarbamoyl)cyclopropanecarboxylic acid], the IC50 stood at 98.2 nM.
With `CC1(C(=O)Nc2cnn3ccc(N4CCC[C@@H]4c4cc(F)ccc4Cl)nc23)CCNCC1` [Example 49, (R)—N-(5-(2-(2-chloro-5-fluorophenyl)pyrrolidin-1-yl)pyrazolo[1,5-a]pyrimidin-3-yl)-4-methylpiperidine-4-carboxamide hydrochloride] the figure was 29.2 nM; with `CC(C)(C(=O)Nc1cnn2ccc(N3CCC[C@@H]3c3cc(F)ccc3F)nc12)n1cncn1` [Example 56, (R)—N-(5-(2-(2,5-difluorophenyl)pyrrolidin-1-yl)pyrazolo[1,5-a]pyrimidin-3-yl)-2-methyl-2-(1H-1,2,4-triazol-1-yl)propanamide], 14.4 nM.
With `C[C@H]1CN(C(=O)Nc2cnn3ccc(N4CCC[C@@H]4c4cc(F)ccc4F)nc23)CCN1` [Example 31, (S)—N-(5-((R)-2-(2,5-difluorophenyl)pyrrolidin-1-yl)pyrazolo[1,5-a]pyrimidin-3-yl)-3-methylpiperazine-1-carboxamide hydrochloride] the figure was 88.3 nM.
Under `CC(C)(C)NC(=O)Nc1cnn2ccc(N3CCC[C@@H]3c3cc(F)ccc3F)nc12` [Example 3, (R)-1-tert-butyl-3-(5-(2-(2,5-difluorophenyl)pyrrolidin-1-yl)pyrazolo[1,5-a]pyrimidin-3-yl)urea] stands 22.2 nM; under `N#CC1(C(=O)Nc2cnn3ccc(N4CCC[C@@H]4c4cc(F)ccc4F)nc23)CC1` [Example 52, (R)-1-cyano-N-(5-(2-(2,5-difluorophenyl)pyrrolidin-1-yl)pyrazolo[1,5-a]pyrimidin-3-yl)cyclopropanecarboxamide], 4.2 nM.
With `CN(C)C(=O)C(=O)Nc1cnn2ccc(N3CCC[C@@H]3c3cc(F)ccc3F)nc12` [Example 97, (R)—N^1-(5-(2-(2,5-difluorophenyl)pyrrolidin-1-yl)pyrazolo[1,5-a]pyrimidin-3-yl)-N^2,N^2-dimethyloxalamide], the IC50 stood at 47.5 nM.
With `O=C(Nc1cnn2ccc(N3CCC[C@@H]3c3cc(F)ccc3C(F)F)nc12)N1CCC[C@@H](O)C1` [Example 39, (R)—N-(5-((R)-2-(2-(difluoromethyl)-5-fluorophenyl)pyrrolidin-1-yl)pyrazolo[1,5-a]pyrimidin-3-yl)-3-hydroxypiperidine-1-carboxamide] the figure was 25.7 nM; with `CC(C)(CO)C(=O)Nc1cnn2ccc(N3CCC[C@@H]3c3cc(F)ccc3F)nc12` [Example 64, (R)—N-(5-(2-(2,5-difluorophenyl)pyrrolidin-1-yl)pyrazolo[1,5-a]pyrimidin-3-yl)-3-hydroxy-2,2-dimethylpropanamide], 7.5 nM; with `Cn1ccc(C(=O)Nc2cnn3ccc(N4CCC[C@@H]4c4cccc(F)c4)nc23)n1` [Example 73, (R)—N-(5-(2-(3-fluorophenyl)pyrrolidin-1-yl)pyrazolo[1,5-a]pyrimidin-3-yl)-1-methyl-1H-pyrazole-3-carboxamide], 8.5 nM.
As to `Cn1ccc(C(=O)Nc2cnn3ccc(N4CCC[C@@H]4c4cccc(F)c4)nc23)cc1=O` [Example 70, (R)—N-(5-(2-(3-fluorophenyl)pyrrolidin-1-yl)pyrazolo[1,5-a]pyrimidin-3-yl)-1-methyl-2-oxo-1,2-dihydropyridine-4-carboxamide], the IC50 was found to be 55.6 nM.
With `COc1ccc(F)cc1[C@H]1CCCN1c1ccn2ncc(NC(=O)N3CC[C@H](O)C3)c2n1` [Example 90, (S)—N-(5-((R)-2-(5-fluoro-2-methoxyphenyl)pyrrolidin-1-yl)pyrazolo[1,5-a]pyrimidin-3-yl)-3-hydroxypyrrolidine-1-carboxamide] the figure was 11.3 nM.
With `COc1ncccc1C(=O)Nc1cnn2ccc(N3CCC[C@@H]3c3cccc(F)c3)nc12` [Example 79, (R)—N-(5-(2-(3-fluorophenyl)pyrrolidin-1-yl)pyrazolo[1,5-a]pyrimidin-3-yl)-2-methoxynicotinamide] the figure was 5.7 nM; with `COc1ccc(NC(=O)Nc2cnn3ccc(N4CCC[C@@H]4c4cc(F)ccc4F)nc23)cc1` [Example 20, (R)-1-(5-(2-(2,5-difluorophenyl)pyrrolidin-1-yl)pyrazolo[1,5-a]pyrimidin-3-yl)-3-(4-methoxyphenyl)urea], 4.8 nM; with `O=C(Nc1cnn2ccc(N3CCC[C@@H]3c3cc(F)ccc3Cl)nc12)C1CNC1` [Example 47, (R)—N-(5-(2-(2-chloro-5-fluorophenyl)pyrrolidin-1-yl)pyrazolo[1,5-a]pyrimidin-3-yl)azetidine-3-carboxamide trifluoroacetate], 190 nM.
On to `Cc1cnc(C(=O)Nc2cnn3ccc(N4CCC[C@@H]4c4cc(F)ccc4F)nc23)cn1` [Example 58, (R)—N-(5-(2-(2,5-difluorophenyl)pyrrolidin-1-yl)pyrazolo[1,5-a]pyrimidin-3-yl)-5-methylpyrazine-2-carboxamide], for which the IC50 is 3.1 nM.
Under `COc1ccc(F)cc1[C@H]1CCCN1c1ccn2ncc(NC(=O)N3CCC[C@H](O)C3)c2n1` [Example 91, (S)—N-(5-((R)-2-(5-fluoro-2-methoxyphenyl)pyrrolidin-1-yl)pyrazolo[1,5-a]pyrimidin-3-yl)-3-hydroxypiperidine-1-carboxamide] stands 10.2 nM; under `O=C(Nc1cnn2ccc(N3CCC[C@@H]3c3cc(F)ccc3F)nc12)c1ncccn1` [Example 67, (R)—N-(5-(2-(2,5-difluorophenyl)pyrrolidin-1-yl)pyrazolo[1,5-a]pyrimidin-3-yl)pyrimidine-2-carboxamide], 3 nM.
Under `CCN1CCN(C(=O)Nc2cnn3ccc(N4CCC[C@@H]4c4cc(F)ccc4F)nc23)CC1` [Example 27, (R)—N-(5-(2-(2,5-difluorophenyl)pyrrolidin-1-yl)pyrazolo[1,5-a]pyrimidin-3-yl)-4-ethylpiperazine-1-carboxamide] stands 107 nM; under `O=C(Nc1cnn2ccc(N3CCC[C@@H]3c3cc(F)ccc3Cl)nc12)N1CCC[C@@H](O)C1` [Example 43, (R)—N-(5-((R)-2-(2-chloro-5-fluorophenyl)pyrrolidin-1-yl)pyrazolo[1,5-a]pyrimidin-3-yl)-3-hydroxypiperidine-1-carboxamide], 11.7 nM; under `O=C(Nc1cnn2ccc(N3CCC[C@@H]3c3cc(F)ccc3Cl)nc12)N1CC(O)C1` [Example 8, (R)—N-(5-(2-(2-chloro-5-fluorophenyl)pyrrolidin-1-yl)pyrazolo[1,5-a]pyrimidin-3-yl)-3-hydroxyazetidine-1-carboxamide], 13.7 nM.
With `O=C(Nc1cnn2ccc(N3CCC[C@@H]3c3cc(F)ccc3F)nc12)C1(C(F)(F)F)CC1` [Example 51, (R)—N-(5-(2-(2,5-difluorophenyl)pyrrolidin-1-yl)pyrazolo[1,5-a]pyrimidin-3-yl)-1-(trifluoromethyl)cyclopropanecarboxamide] the figure was 5.2 nM; with `O=C(Nc1cnn2ccc(N3CCC[C@@H]3c3cc(F)ccc3F)nc12)[C@H]1CC[C@@H](O)C1` [Example 94, (1S,3R)—N-(5-((R)-2-(2,5-difluorophenyl)pyrrolidin-1-yl)pyrazolo[1,5-a]pyrimidin-3-yl)-3-hydroxycyclopentanecarboxamide], 20.3 nM.
Take `O=C(Nc1cnn2ccc(N3CCC[C@@H]3c3cc(F)ccc3C(F)(F)F)nc12)N1CCC[C@H](O)C1` [Example 87, (S)—N-(5-((R)-2-(5-fluoro-2-(trifluoromethyl)phenyl)pyrrolidin-1-yl)pyrazolo[1,5-a]pyrimidin-3-yl)-3-hydroxypiperidine-1-carboxamide]: the IC50 was determined as 14.6 nM.
With `O=C(Nc1cnn2ccc(N3CCC[C@@H]3c3cc(F)ccc3F)nc12)c1cccc(Cl)n1` [Example 71, (R)-6-chloro-N-(5-(2-(2,5-difluorophenyl)pyrrolidin-1-yl)pyrazolo[1,5-a]pyrimidin-3-yl)picolinamide] the figure was 3.5 nM.
Under `CC(C)N1CCN(C(=O)Nc2cnn3ccc(N4CCC[C@@H]4c4cc(F)ccc4F)nc23)CC1` [Example 26, (R)—N-(5-(2-(2,5-difluorophenyl)pyrrolidin-1-yl)pyrazolo[1,5-a]pyrimidin-3-yl)-4-isopropylpiperazine-1-carboxamide] stands 45 nM; under `CC1(O)CN(C(=O)Nc2cnn3ccc(N4CCC[C@@H]4c4cc(F)ccc4F)nc23)C1` [Example 17, (R)—N-(5-(2-(2,5-difluorophenyl)pyrrolidin-1-yl)pyrazolo[1,5-a]pyrimidin-3-yl)-3-hydroxy-3-methylazetidine-1-carboxamide], 19.7 nM.
With `O=C(Nc1cnn2ccc(N3CCC[C@@H]3c3cc(F)ccc3F)nc12)C(=O)N1CC(O)C1` [Example 101, (R)—N-(5-(2-(2,5-difluorophenyl)pyrrolidin-1-yl)pyrazolo[1,5-a]pyrimidin-3-yl)-2-(3-hydroxyazetidin-1-yl)-2-oxo acetamide] the figure was 10.1 nM; with `O=C(Nc1cnn2ccc(N3CCC[C@@H]3c3cc(F)ccc3F)nc12)c1ccc(Cl)cn1` [Example 61, (R)-5-chloro-N-(5-(2-(2,5-difluorophenyl)pyrrolidin-1-yl)pyrazolo[1,5-a]pyrimidin-3-yl)picolinamide], 4 nM.

Values taken from patent publication US8865698B2, “Method of treatment using substituted pyrazolo[1,5-a]pyrimidine compounds” (Array BioPharma Inc., priority 2008, dated 2014).
